The values that follow come from patent US9274101B2 (BIOLOG, Inc., priority 2001, dated 2016).

Each structure is given as a SMILES string.

In test [1] the test system is Salmonella typhimurium auxotrophs hisF645 and pyrCΔ73. It counts as cell-based.
A further test relates to E. coli MG1655. Format: cell-based, Escherichia coli.
The subject of another test is HL-60 cells. In words: HL-60 cells in PM1 and PM2 plates, MTS/MPMS color, % negative control. Format: cell-based, human. To be noted: L-glutamine 13.7 mM (well E1); citric acid 10.4 mM (well F2).
Another test has as its system HepG2 cells. Kind of test: HepG2 cells cultured on CYTODEX 3 microcarriers, energy sources. Format: cell-based, human. To be noted: for activity at 30 µM / activity at 100 µM / activity at 330 µM / activity at 1000 µM / activity at 3300 µM / activity at 10000 µM / activity at 15000 µM / activity at 20000 µM: Homo sapiens, HepG2, 68 h, read-out: Responses of HepG2 Cells Cultured on Microcarriers After 68 hours in Culture and a 4 hour Color Development Period. In short, it runs like this: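 HepG2 cells on CYTODEX 3 microcarriers, held in methylcellulose-containing DME with 10% HI FBS lacking glucose, glutamine and pyruvate, exposed to test energy sources at 0.033–20 mM final. After 68 h at 37 °C, MTS/PMS read at 490 nm (ref 650 nm) after 4–8 h; cell-free background subtracted, normalized to % no-energy-source control.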

For `N[C@@H](Cc1c[nH]cn1)C(=O)O` [L-histidine], the “growth stimulation (well color)” value in test [1] is listed as “turned purple”. Also, in the test with E. coli MG1655, the “suitability as nitrogen source (growth, purple color)” value (from here on “suitability as nitrogen source”) was “not suitable”.

With `NC(=O)CC[C@H](N)C(=O)O` [L-glutamine], the response in words result in the test on HL-60 cells is “strong positive response”; in the test on HepG2 cells (68 hours culture, responses greater than 140% of the negative control scored positive), “narrow range of responsiveness”. For the same compound, the activity at 30 µM in the test with HepG2 cells (Conc. 0.03 mM) stood at 110%. In the test on HepG2 cells (Conc. 0.10 mM), the activity at 100 µM is 151%. In the test on HepG2 cells (Conc. 0.33 mM), the activity at 330 µM is 195%. Besides, the activity at 1000 µM in the test with HepG2 cells (Conc. 1.00 mM) came to 211%. Further, the activity at 3300 µM with HepG2 cells (Conc. 3.3 mM) was found to be 212%. Besides, in the test on HepG2 cells (Conc. 10 mM), the activity at 10000 µM amounted to 183%. Also, the activity at 15000 µM in the test on HepG2 cells (Conc. 15 mM) is 150%. In the test on HepG2 cells (Conc. 20 mM), the activity at 20000 µM was 101%. The “suitability as nitrogen source” value with E. coli MG1655 is recorded as “positive”.

With `CC(C)[C@H](N)C(=O)O` [L-valine], in the test with E. coli MG1655, the “suitability as nitrogen source” value is on record as “not suitable”.

With `Cc1cn([C@H]2C[C@H](O)[C@@H](CO)O2)c(=O)[nH]c1=O` [Thymidine], the activity at 30 µM with HepG2 cells (Conc. 0.03 mM) was determined as 87.9%. The activity at 100 µM in the test with HepG2 cells (Conc. 0.10 mM) worked out at 101%. For the same compound, the activity at 330 µM in the test with HepG2 cells (Conc. 0.33 mM) came out at 97.9%. For the same compound, the activity at 1000 µM in the test on HepG2 cells (Conc. 1.00 mM) came to 99.4%. The activity at 3300 µM with HepG2 cells (Conc. 3.3 mM) came out at 89%. The activity at 10000 µM in the test with HepG2 cells (Conc. 10 mM) was determined as 71.4%. The activity at 15000 µM in the test on HepG2 cells (Conc. 15 mM) was found to be 65.2%. The activity at 20000 µM in the test with HepG2 cells (Conc. 20 mM) came to 34.5%. Further, in the test on E. coli MG1655, the “suitability as nitrogen source” value is “not suitable”.

For the compound `O=C1O[C@@H]([C@H](O)CO)[C@H](O)[C@H]1O` [D-gal acid g-lactone], the “Responses of HepG2 Cells Cultured on Microcarriers After 68 hours in Culture and a 4 hour Color Development Period” value is 99.4 % of negative control in the test on HepG2 cells (Conc. 0.03 mM); 100.2 % of negative control with HepG2 cells (Conc. 0.10 mM); 89.0 % of negative control in the test with HepG2 cells (Conc. 0.33 mM); 89.4 % of negative control with HepG2 cells (Conc. 1.00 mM); 101.7 % of negative control in the test with HepG2 cells (Conc. 3.3 mM); 95.2 % of negative control in the test on HepG2 cells (Conc. 10 mM). Besides, the figures for the “Responses of HepG2 Cells Cultured on Microcarriers After 68 hours in Culture and a 4 hour Color Development Period” value in the test on HepG2 cells (Conc. 15 mM) and in the test with HepG2 cells (Conc. 20 mM) were 98.6 % of negative control and 74.1 % of negative control, respectively.

As for `NC(=O)C[C@H](N)C(=O)O` [L-asparagine], in the test with E. coli MG1655, the “suitability as nitrogen source” value is recorded as “positive”.
